Results as given in patent US20260344670A1, “BIXLOZONE MIXTURES WITH PETHOXAMID” (FMC CORPORATION, priority 2022, published 2026).

Legend:
Assay type in all cases: in vivo
[1] = tested on: Mercurialis annua (MERAN); assay: pre-emergence control of MERAN in corn (efficacy, Colby synergy)
Source text: (§1) [formula] • where ppm=milligrams of active ingredient (=a.i.) per liter of spray mixture X=% action by component A using p ppm of active ingredient Y=% action by component B using q ppm of active ingredient. If the ratio R defined as the action actually observed (O) divided by the expected action (E) is >1 then the action of the combination is superadditive, i.e. there is a synergistic effect. For a more detailed description of the Colby formula, see Colby, S. R. “Calculating Synergistic and Antagonistic Responses of Herbicide Combination”, Weeds, Vol. 15, pages 20-22; 1967; see also Limpel et al., Proc. NEWCC 16:48-53 (1962).
(§2) As used herein, rating timings correspond to the following: A1=weed assessment at BBCH 11-12; A2=4 weeks after the application; A3=when ZEAMX crop reaches BBCH 18 (row closure); and A4=BBCH 51-59 of the ZEAMX crop.
(§3) The herbicidal compounds bixlozone and pethoxamid were applied in a variety of forms and at a variety of amounts, application rates, and normalities. Efficacy of the herbicidal compositions was evaluated with reference to a scale of 0% to 100% in comparison with untreated control plots. 0 means no damage to the harmful plants and 100 means complete destruction of the harmful plants. Plants per square meter is indicated by “pl/m^2”, and grams per hectare is indicated by “g/ha”. The acronym “EC” means emulsifiable concentrate (a liquid, homogenous formulation to be applied as an emulsion after dilution with water); “SC” means suspension concentrate (a stable suspension of active ingredient(s) with water as the fluid); “ZC” refers to a mixed formulation of CS and SC (a stable suspension of capsules and active ingredient(s) in a fluid, normally intended for dilution with water before use).
(§4) Various forms, compositions, and mixtures of bixlozone and pethoxamid were applied to corn before emergence. […] There was equivalent efficacy for fixed rate of bixlozone combined with pethoxamid: 1200 or 900 g/ha. Efficacy was reduced when bixlozone rate decreased from 250 to 150 g/ha. […]

[2] = tested on: Abutilon theophrasti (ABUTH); assay: pre-emergence control of ABUTH in corn (efficacy, Colby synergy)
Source text: as §1, §2, §3, §4

VERPE = assay: pre-emergence control of VERPE in corn (efficacy, Colby synergy)
Source text: (§5) Table 11. Synergy data of various forms and mixtures of bixlozone and pethoxamid after pre-emergence application on corn at the crop row closure stage (BBCH 18). The notations in parentheses show the forms and amounts (in g/ha) of applied bixlozone and pethoxamid, respectively. Where “tank” is noted, the mix is a tank mix. Where “premix” is noted, the mix is a premix. Where there is no notation, the value shown is the Colby calculation for the expected value from separate mixtures.
(§6) Various forms, compositions, and mixtures of bixlozone and pethoxamid were applied to corn before emergence. […] Mixtures of bixlozone with 800 g/ha pethoxamid improved weed spectrum on a range of broad leaf weeds (e.g., CHEAL and ABUTH) and grasses (e.g., ECHCG, DIGSA, and SETVI). Combinations of bixlozone and pethoxamid in pre-emergence applications were very safe with no clear pethoxamid rate effect.
(§7) Table 12. Efficacies of various forms and mixtures of bixlozone and pethoxamid after pre-emergence application on corn. Weeds were present at ≥5 pl/m^2. Concentrations are shown in parentheses in g/ha.
(§8) Various forms, compositions, and mixtures of bixlozone and pethoxamid were applied to corn before emergence. […] Mixtures of bixlozone with 300 g/ha pethoxamid improved weed spectrum on a range of broad leaf weeds (e.g., SOLNI and ABUTH). […]

POLHY = assay: pre-emergence control of POLHY in corn (efficacy); conditions: bixlozone 375, pethoxamid 800, tank mix 375 + 800, premix 375 + 775 g/ha
Source text: as §6, §7

CAGSE = assay: pre-emergence control of CAGSE in corn (efficacy, Colby synergy)
Source text: as §6, with “1200” for “800”, “CHEAL, MATSS,” for “CHEAL”, “POLSS)” for “ABUTH)”
Table 8. Efficacies of various forms and mixtures of bixlozone and pethoxamid after pre-emergence application on corn. Weeds were present at ≥5 pl/m^2. Concentrations are shown in parentheses in g/ha.
as §5, §8

[3] = tested on: Chenopodium album (CHEAL); assay: pre-emergence control of CHEAL in corn (efficacy, Colby synergy)
Source text: as §1, §2, §3, §4

[4] = tested on: Amaranthus retroflexus (AMARE); assay: pre-emergence control of AMARE in corn (efficacy, Colby synergy)
Source text: as §1, §2
(§9) The herbicidal compounds bixlozone and pethoxamid were applied in a variety of forms and at a variety of amounts, application rates, and normalities. Efficacy of the herbicidal compositions was evaluated with reference to a scale of 0% to 100% in comparison with untreated control plots. 0 means no damage to the harmful plants and 100 means complete destruction of the harmful plants. Plants per square meter is indicated by “pl/m^2”, and grams per hectare is indicated by “g/ha”. […]

Senecio vulgaris (SENVU) = assay: pre-emergence control of SENVU in corn (efficacy, Colby synergy); conditions: bixlozone 375, pethoxamid 800, tank mix 375 + 800, premix 375 + 775 g/ha
Source text: as §1, §2, §9

[5] = tested on: Fallopia convolvulus (POLCO); assay: pre-emergence control of POLCO in corn (efficacy, Colby synergy)
Source text: as §1, §2, §9

ANGAR = assay: pre-emergence control of ANGAR in corn (efficacy, Colby synergy); conditions: bixlozone 375, pethoxamid 800, tank mix 375 + 800, premix 375 + 775 g/ha
Source text: (§10) Table 10. Synergy data of various forms and mixtures of bixlozone and pethoxamid after pre-emergence application on corn at the crop row closure stage (BBCH 18). […] The notations in parentheses show the forms and amounts (in g/ha) of applied bixlozone and pethoxamid, respectively. Where “tank” is noted, the mix is a tank mix. Where “premix” is noted, the mix is a premix. Where there is no notation, the value shown is the Colby calculation for the expected value from separate mixtures.
as §6, §7

[6] = tested on: Sorghum halepense (SORHA); assay: pre-emergence control of SORHA in corn (efficacy, Colby synergy)
Source text: as §1, §2, §9

Setaria viridis (SETVI) = assay: pre-emergence control of SETVI in corn (efficacy, Colby synergy)
Source text: as §1, §2, §3, §4

[7] = tested on: Persicaria lapathifolia (POLLA); assay: pre-emergence control of POLLA in corn (efficacy, Colby synergy)
Source text: as §1, §2, §3, §4

CHEPO = assay: pre-emergence control of CHEPO in corn (efficacy, Colby synergy); conditions: bixlozone 375, pethoxamid 800, tank mix 375 + 800, premix 375 + 775 g/ha
Source text: as §10, §6, §7

[8] = tested on: Tripleurospermum inodorum (MATIN); assay: pre-emergence control of MATIN in corn (Colby synergy)
Source text: as §1, §9

[9] = tested on: Xanthium strumarium (XANST); assay: pre-emergence control of XANST in corn (efficacy, Colby synergy); conditions: bixlozone 375, pethoxamid 300, mixtures 375 + 300 g/ha
Source text: as §1, §2, §9

POAAN = assay: pre-emergence control of POAAN in corn (efficacy, Colby synergy); conditions: bixlozone 375, pethoxamid 300, mixtures 375 + 300 g/ha
Source text: as §5
as §6, with “300” for “800”, “SOLNI” for “CHEAL”, “ABUTH).” for “ABUTH) and grasses (e.g., ECHCG, DIGSA, and SETVI).”
Table 13. Efficacies of various forms and mixtures of bixlozone and pethoxamid after pre-emergence application on corn. Weeds were present at ≥5 pl/m^2. Concentrations are shown in parentheses in g/ha.
Various forms, compositions, and mixtures of bixlozone and pethoxamid were applied to corn before emergence. […] There was equivalent efficacy for fixed rate of bixlozone combined with pethoxamid: 1200 or 900 g/ha. Efficacy was reduced when bixlozone rate decreased from 250 to 150 g/ha.
Table 14. […]

[10] = tested on: Potentilla tridentate (PTLTR); assay: pre-emergence control of PTLTR in corn (Colby synergy); conditions: bixlozone 375, pethoxamid 1200, mixtures 375 + 1200 g/ha
Source text: as §1, §9

[11] = bixlozone 375, pethoxamid 800, tank mix 375 + 800, premix 375 + 775 g/ha
[12] = bixlozone 375, pethoxamid 1200, mixtures 375 + 1200 g/ha
[13] = bixlozone 375, pethoxamid 300, mixtures 375 + 300 g/ha

CCOCCN(C(=O)CCl)C(=C(C)C)c1ccccc1 [pethoxamid]
Efficacy [1, 11]: 16.9
Efficacy [1, 12]: 48.6
Efficacy [2, 13]: 42.5
Efficacy [2, 11]: 38.9
Efficacy [2, 12]: 56.3
Efficacy (VERPE; [13]): 46.3
Efficacy (VERPE; [11]): 54.4
Efficacy (POLHY): 92.5
Efficacy (CAGSE; [13]): 10
Efficacy (CAGSE; [12]): 0
Efficacy [3, 13]: 35.7
Efficacy [3, 11]: 66.6
Efficacy [3, 12]: 72.2
Efficacy [4, 11]: 50.4
Efficacy [4, 12]: 57.5
Efficacy (Senecio vulgaris (SENVU)): 13.8
Efficacy [5, 11]: 1.3
Efficacy [5, 12]: 12.1
Efficacy (ANGAR): 100
Efficacy [6, 11]: 80
Efficacy [6, 12]: 27.5
Efficacy (Setaria viridis (SETVI); [13]): 30
Efficacy (Setaria viridis (SETVI); [11]): 81
Efficacy (Setaria viridis (SETVI); [12]): 52.1
Efficacy [7, 13]: 42.2
Efficacy [7, 11]: 49.3
Efficacy [7, 12]: 87.8
Efficacy (CHEPO): 30
Efficacy [8, 13]: 50
Efficacy [8, 12]: 100
Efficacy [9]: 35
Efficacy (POAAN): 7.5
Efficacy [10]: 0
